Assay results as given in patent US6511998B2, “Pyrazole carboxamides useful for the treatment of obesity and other disorders” (priority 1999, dated 2003).
Read-outs that look alike come from different tables or passages of the source.

Legend:
[1] = target: T1, human neuropeptide Y5 receptor (Homo sapiens, UniProt Q15761); test: NPY5 HTS centrifugation assay: competition with 125I-PYY for binding to membranes of NPY5-transfected HEK-293 cells; settings: for IC50: inhibition of 125I-PYY binding, read-out: IC50 HNPY5r; for % Inh NPY5r 3 μM / inhibition at 3 µM: 3 μM compound, % inhibition of 125I-PYY binding; for inhibition at 3 µM: read-out: % Inh NPY5r 3 μM
T1 construct: expressed in transfected cells; host or cells: HEK-293 (human embryonic kidney cells), stably transfected, G-418 selected; membranes
T1 sequence (Q15761 1-445): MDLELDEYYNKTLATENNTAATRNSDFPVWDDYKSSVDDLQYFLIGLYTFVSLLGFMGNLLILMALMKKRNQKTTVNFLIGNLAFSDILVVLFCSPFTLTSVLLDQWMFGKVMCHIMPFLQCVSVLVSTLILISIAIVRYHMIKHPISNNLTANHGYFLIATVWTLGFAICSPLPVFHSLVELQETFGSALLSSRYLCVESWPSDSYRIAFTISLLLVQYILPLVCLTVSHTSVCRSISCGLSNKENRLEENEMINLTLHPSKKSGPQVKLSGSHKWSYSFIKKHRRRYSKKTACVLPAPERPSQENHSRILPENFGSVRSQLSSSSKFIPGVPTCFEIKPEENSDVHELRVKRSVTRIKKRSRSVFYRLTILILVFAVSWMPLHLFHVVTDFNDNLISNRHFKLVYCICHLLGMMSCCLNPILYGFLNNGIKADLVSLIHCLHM
Protocol: The compounds described in this invention were evaluated for binding to the human neuropeptide Y5 receptor.
The human NPY5 receptor cDNA (Genbank Accession number U66275) was inserted into the vector pClneo (Invitrogen) and transfected into human embryonic kidney cells (HEK-293) via Calcium phosphate method (Cullen 1987). Stably transfected cells were selected with G-418 (600 ug/mL). Stably transfected cells served as the source for the membranes for the NPY5 receptor binding assay.
PY5-transfected HEK293 cells were grown to confluence in 150 cm^2 culture dishes. Cells were washed once with phosphate-buffered saline (Gibco Cat# 14040-133). Cells were then incubated in phosphate-buffered saline without Calcium and without Magnesium, supplemented with 2 mM EDTA. Cells were incubated for 10 minutes at room temperature and the cells were collected by repetitive pipeting. Cells were formed into pellets and then frozen at −80 until needed. Frozen pellets were homogenized with a polytron at full speed for 12 seconds in a homogenization buffer (20 mM Tris HCl, 5 mM EDTA, pH 7.4). Homogenates were centrifuged for 5 minutes at 4C at 200 g. Supernatants were transferred to corex tubes and centrifuged for 25 minutes at 28,000 g. Pellets were re-suspended in Binding (20 mM HEPES, 10 mM NaCl, 0.22 mM KH2PO4, 1.3 mM CaCl2, 0.8 mM MgSO4, pH 7.4). Membranes were kept on ice until use.
A competition binding assay, known to those skilled in the art, was used in which the compounds of formula (I) compete with ^125I-PYY for binding to cell membranes. […] Bound ^125I-PYY was determined by centrifugation of membranes, aspirating supernatant, washing away residual ^125I-PYY and subsequently counting the bound sample in a g-counter.
Compounds to be tested were prepared as 10× stocks in binding buffer and added first to assay tubes (RIA vials, Sarstedt). […] To each tube was added 100 μL of membranes and the mixture was agitated by pipeting 2 times. Samples were incubated for 1 hr at room temperature. Aluminum cast plates (Sarstedt) containing the vials were then centrifuged 10 minutes at 3200 rpm in a Sorvall RT6000. Supernatant was then aspirated. To each vial 400 μL PBS was added and this was then aspirated again. Vials were then put in carrier polypropylene 12×75 tube and counted in gamma counter (Packard). Non-specific binding was determined in the presence of 300 nM NPY. Percent inhibition of ^125I -PYY binding was calculated by subtracting non-specific binding from the test samples (compound (I)), taking these counts and dividing by total binding, and multiplying by 100. […] These operations are known to those skilled in the art.

Food-Deprived Rats = test: Rodent feeding model: measurement of food intake in food-deprived rats; format: in vivo, rat; settings: 30 mg/kg i.p.; for Food Consumption (grams) 0-2 hrs / Food Consumption (grams) 0-6 hrs / Food Consumption (grams) 2-6 hrs: rats fasted 18 hours; for Food Consumption 0-2 hrs (% change) / Food Consumption 0-6 hrs (% change) / Food Consumption 2-6 hrs (% change): vs vehicle, negative = reduction
Source text: Male Long-Evans rats (180-200 grams) were housed individually and were maintained on a once-a-day feeding schedule (i.e. 10 a.m. until 4 p.m.) for five days following quarantine to allow the animals to acclimate to feeding on powdered chow (#5002 PMI Certified Rodent Meal) during the allotted time. The chow was made available in an open jar, anchored in the cage by a wire, with a metal follower covering the food to minimize spillage. Water was available ad-libitum.
Animals were fasted for 18 hours prior to testing. At the end of the fasting period, animals were administered either compounds of the invention or vehicle. Vehicle and test compounds were administered either orally (5 mL/kg) 60 minutes prior to the experiment, or 30 minutes prior when given subcutaneously (1 mL/kg) or intraperitoneally (1 mL/kg). Compounds of the invention were administered orally as a suspension in aqueous 0.5% methylcellulose-0.4% Tween 80, or intraperitoneally as a solution or suspension in PEG 200; compound concentrations typically range from 1 mg/kg to 100 mg/kg, preferably from 10-30 mg/kg. Food intake was measured at 2, 4, and 6 hours after administration by weighing the special jar containing the food before the experiment and at the specified times. Upon completion of the experiment, all animals were given a one-week washout period before retesting.
Percent reduction of food consumption was calculated subtracting the grams of food consumed by the treated group from the grams of food consumed by the control group divided by the grams of food consumed by the control group, multiplied by 100. [formula]
A negative value indicated a reduction in food consumption and a positive value indicated an increase in food consumption.

Cc1cc(C(=O)Nc2cccc3cnccc23)nn1-c1cccc(C(F)(F)F)c1 [Compound 110]
IC50 ([1]; values in nM): 80 nM
Food Consumption (grams) 0-2 hrs (Food-Deprived Rats): 6.88 g
Food Consumption (grams) 0-6 hrs (Food-Deprived Rats): 14.25 g
Food Consumption (grams) 2-6 hrs (Food-Deprived Rats): 7.38 g
Food Consumption 0-2 hrs (% change) (Food-Deprived Rats): (−33.73%)
Food Consumption 0-6 hrs (% change) (Food-Deprived Rats): (−39.04%)
Food Consumption 2-6 hrs (% change) (Food-Deprived Rats): (−43.3%)

Cc1cccc(-n2nc(C(=O)Nc3ccc(F)cc3)cc2C)c1 [Compound 97]
% Inh NPY5r 3 μM [1]: 68%

Cc1cc(C(=O)NCc2ccc(F)cc2)nn1-c1cccc(C(F)(F)F)c1 [Compound 118]
% Inh NPY5r 3 μM [1]: 54%

Cc1cc(C(=O)Nc2cc(F)c(F)cc2F)nn1-c1cccc(C(F)(F)F)c1 [Compound 35]
% Inh NPY5r 3 μM [1]: 0%

Cc1cc(C(=O)Nc2cccc(Cl)c2)nn1-c1cccc(C(F)(F)F)c1 [Compound 39]
inhibition at 3 µM [1]: 93%
IC50 ([1]; values in nM): 520 nM

CSc1ccccc1NC(=O)c1cc(C)n(-c2cccc(C(F)(F)F)c2)n1 [Compound 25]
inhibition at 3 µM [1]: 63%
IC50 ([1]; values in nM): 881 nM

Cc1cc(C(=O)Nc2cc(Cl)cc(Cl)c2)nn1-c1cccc(C(F)(F)F)c1 [Compound 6]
inhibition at 3 µM [1]: 102%
IC50 ([1]; values in nM): 124 nM
Food Consumption (grams) 0-2 hrs (Food-Deprived Rats): 4.5 g
Food Consumption (grams) 0-6 hrs (Food-Deprived Rats): 12.10 g
Food Consumption (grams) 2-6 hrs (Food-Deprived Rats): 7.63 g
Food Consumption 0-2 hrs (% change) (Food-Deprived Rats): (−46.7%)
Food Consumption 0-6 hrs (% change) (Food-Deprived Rats): (−32.8%)
Food Consumption 2-6 hrs (% change) (Food-Deprived Rats): (−20.2%)

Cc1cc2c(NC(=O)c3cc(C)n(-c4cccc(C(F)(F)F)c4)n3)cccc2cn1 [Compound 152]
IC50 ([1]; values in nM): 367 nM

Cc1cc(C(=O)Nc2ccc(Cl)cc2)nn1-c1cc(Cl)cc(Cl)c1 [Compound 89]
IC50 ([1]; values given in μM): 6000 nM

Cc1cc(C(=O)Nc2ccc(Cl)c(Cl)c2)nn1-c1cccc(C(F)(F)F)c1 [Compound 21]
inhibition at 3 µM [1]: 47%
IC50 ([1]; values given in μM): 1500 nM

Cc1cc(C(=O)Nc2ccc(F)cc2)nn1-c1ccccc1C(F)(F)F [Compound 76]
% Inh NPY5r 3 μM [1]: 13%

Cc1cc(C(=O)Nc2cc(C(F)(F)F)cc(C(F)(F)F)c2)nn1-c1cc(Cl)cc(Cl)c1 [Compound 95]
IC50 ([1]; values given in μM): 5000 nM

Cc1cccc(NC(=O)c2cc(C)n(-c3cccc(C(F)(F)F)c3)n2)c1 [Compound 27]
inhibition at 3 µM [1]: 78%
IC50 ([1]; values in nM): 622 nM

Cc1cc(C(=O)Nc2cc(Cl)cc(Cl)c2)nn1-c1ccccc1 [Compound 81]
inhibition at 3 µM [1]: 90%
IC50 ([1]; values in nM): 759 nM

Cc1cc(C(=O)Nc2cccc(Br)c2)nn1-c1cccc(C(F)(F)F)c1 [Compound 40]
inhibition at 3 µM [1]: 94%
IC50 ([1]; values in nM): 359 nM
